One may read the IC50 as the concentration that inhibits the measured activity by half.

Where two headings read alike, the source gives them in different places.

We go through 45 compounds from patent EP4121415B1, “INHIBITORS OF CYTOKININ OXIDASE DERIVED FROM 1-[2-(HYDROXYALKYL)PHENYL]-3-YLUREA, USE THEREOF AND PREPARATIONS CONTAINING THESE DERIVATIVES” (Univerzita Palackého v Olomouci, priority 2020, dated 2021).

This test concerns the target T1, maize enzyme cytokinin oxidase/dehydrogenase 1 (ZmCKX1) (Zea mays, UniProt Q9T0N8).
T1 construct: made in house; host or cells: Yarrowia lipolytica
The test can be described thus: ZmCKX1 inhibition, PMS/MTT assay. The test is classed as biochemical. How it is done: The IC50 (concentration of a substance that causes 50% inhibition of the enzyme activity) was measured by PMS/MTT assay [phenazine methosulphate/3-(4,5-dimethylthiazol-2-yl)-2,5-diphenyltetrazolium bromide]. The assay was performed in 96-well microtiter plates. Each well contained a reaction mixture with a final concentration of: 0.1 M KH2PO4, pH 7.4, 1 mM MTT, 0.2 mM PMS, tested substance in a concentration range of 0.1 nM - 1 µM and 10 µM N^6-isopentenyladenine (iP) as a substrate. To this reaction mixture 100 µL of medium containing the active enzyme ZmCKX1 was added. The enzyme was produced by the yeast Yarrowia lipolytica and isolated according to the protocol (Kopečný D. et al., 2005, […] 87:1011-1022). The plates were incubated for 30 min at 37 °C and the enzymatic reaction was stopped by the addition of 25 µL of 35% acetic acid. Then, the absorbance at 578 nm was measured on a spectrophotometer, and the absorbance of the sample without the substrate was substracted as a reference value. The IC50 value was determined from the concentration-dependent curves in GraphPad Prism software. The values shown in Table 1 are the average of at least two measurements each performed in three repetitions. […] This also applies to 3,5-DCl-Ph-U derivatives.

Setting [1] is: 10 µM N6-isopentenyladenine (iP) as substrate, pH 7.4, 30 min at 37 °C, average of at least two measurements, read-out: IC50 (µM) ZmCKX1.

T1 sequence (Q9T0N8 19-534): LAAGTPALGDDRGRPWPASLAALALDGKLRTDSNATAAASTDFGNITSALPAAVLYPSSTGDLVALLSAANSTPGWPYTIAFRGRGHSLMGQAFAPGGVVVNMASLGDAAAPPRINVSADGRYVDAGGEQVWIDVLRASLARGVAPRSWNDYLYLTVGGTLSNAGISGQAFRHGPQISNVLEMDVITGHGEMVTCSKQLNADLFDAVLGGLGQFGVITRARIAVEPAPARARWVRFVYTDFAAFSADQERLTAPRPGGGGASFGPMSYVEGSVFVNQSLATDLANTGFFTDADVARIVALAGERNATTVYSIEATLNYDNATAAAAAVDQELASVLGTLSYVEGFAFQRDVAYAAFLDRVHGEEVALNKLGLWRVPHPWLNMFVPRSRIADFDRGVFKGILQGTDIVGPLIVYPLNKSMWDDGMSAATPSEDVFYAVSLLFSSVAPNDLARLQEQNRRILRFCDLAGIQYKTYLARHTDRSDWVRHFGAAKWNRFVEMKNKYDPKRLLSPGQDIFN

For `COc1cc(NCCO)cc(NC(=O)Nc2ccccc2CO)c1` [Compound 23, 1-[3-(2-hydroxyethylamino)-5-methoxyphenyl]-3-(2-hydroxymethylphenyl)urea], the IC50 under setting [1] came to 0.2 µM.
Regarding `O=C(Nc1cccc(OC(F)(F)F)c1)Nc1cc(Cl)ccc1CO` [Compound 33, 1-(5-Chloro-2-hydroxymethylphenyl)-3-(3-trifluoromethoxyphenyl)urea], the IC50 under setting [1] came to 0.06 µM.
On the same count and under the same terms, next, `CSc1cccc(NC(=O)Nc2ccccc2CO)c1` [Compound 26, 1-(2-hydroxymethylphenyl)-3-(3-methylsulphanylphenyl)urea]: 1.5 µM; `O=C(Nc1cc(Cl)cc(Cl)c1)Nc1cc(Cl)cc(Cl)c1CCO` [Compound 49, 1-[3,5-Dichloro-2-(2-hydroxyethyl)phenyl]-3-(3,5-dichlorophenyl)urea]: 0.01 µM.
`O=C(Nc1cc(F)cc(Br)c1)Nc1ccccc1CCO` [Compound 47, 1-(3-bromo-5-fluorophenyl)-3-[2-(2-hydroxyethyl)phenyl]urea] showed an IC50 of 0.17 µM.
On to `O=C(Nc1cccc(OC(F)(F)F)c1)Nc1cccc(F)c1CO` [Compound 29, 1-(3-fluoro-2-hydroxymethylphenyl)-3-(3-trifluoromethoxyphenyl)urea], for which, under setting [1], the IC50 was determined as 0.36 µM.
`O=C(Nc1cc(F)cc(Cl)c1)Nc1ccccc1CCO` [Compound 48, 1-(3-chloro-5-fluorophenyl)-3-[2-(2-hydroxyethyl)phenyl]urea]: the IC50 under setting [1] is 0.21 µM.
For the compound `COc1cc(NCCN)cc(NC(=O)Nc2ccccc2CO)c1` [Compound 24, 1-[3-(2-aminoethylamino)-5-methoxyphenyl]-3-(2-hydroxymethylphenyl)urea], the IC50 under setting [1] worked out at 0.18 µM.
Same read-out and setting: under `O=C(Nc1ccnc(Cl)c1)Nc1ccccc1CCO` [Compound 12, 1-(2-Chloropyridin-4-yl)-3-[2-(2-hydroxyethyl)phenyl]urea] stands 1.3 µM; under `COc1cc(NCCN)cc(NC(=O)Nc2ccccc2CCO)c1` [Compound 58], 0.13 µM.
The same measure, in the same setting: under `O=C(Nc1cccc(OC(F)(F)F)c1)Nc1ccccc1CO` [Compound 28, 1-(2-Hydroxymethylphenyl)-3-(3-trifluoromethoxyphenyl)urea] stands 1.3 µM.
`O=C(Nc1cc(Cl)nc(Cl)c1)Nc1ccccc1CO` [Compound 5, 1-(2,6-dichloropyridin-4-yl)-3-(2-hydroxymethylphenyl)urea]: the IC50 under setting [1] amounted to 0.7 µM.
The same measure, in the same setting: next, `O=C(Nc1cccc(OC(F)(F)F)c1)Nc1cccc(Cl)c1CO` [Compound 30, 1-(3-Chloro-2-hydroxymethylphenyl)-3-(3-trifluoromethoxyphenyl)urea]: 0.3 µM.
Still for that read-out and setting: under `O=C(Nc1cc(NCCO)cc(OC(F)(F)F)c1)Nc1ccccc1CO` [Compound 38, 1-[3-(2-hydroxyethylamino)-5-trifluoromethoxyphenyl]-3-(2-hydroxymethylphenyl)urea] stands 0.1 µM; under `O=C(Nc1cc(F)cc(F)c1)Nc1ccccc1CCO` [Compound 44, 1-(3,5-difluorophenyl)-3-[2-(2-hydroxyethyl)phenyl]urea], 0.36 µM; under `O=C(Nc1cc(Cl)cc(Cl)c1)Nc1ccccc1CO` [Compound 18, 1-(3,5-Dichlorophenyl)-3-(2-hydroxymethylphenyl)urea], 0.4 µM.
Same read-out and setting: next, `O=C(Nc1cccc(OC(F)(F)F)c1)Nc1cc(Cl)cc(Cl)c1CO` [Compound 36, 1-(3,5-dichloro-2-hydroxymethylphenyl)-3-(3-trifluoromethoxyphenyl)urea]: 0.032 µM; `O=C(Nc1cc(Br)cc(Br)c1)Nc1ccccc1CO` [Compound 19, 1-(3,5-dibromophenyl)-3-(2-hydroxymethylphenyl)urea]: 0.33 µM.
With `O=C(Nc1cccc(SC(F)(F)F)c1)Nc1cc(Cl)ccc1CO` [Compound 43, 1-(5-chloro-2-hydroxymethylphenyl)-3-(3-trifluoromethylsulphanylphenyl)urea], under setting [1], the IC50 was 0.02 µM.
On to `NCCNc1cc(NC(=O)Nc2ccccc2CO)cc(OC(F)(F)F)c1` [Compound 39, 1-[3-(2-aminoethylamino)-5-trifluoromethoxyphenyl]-3-(2-hydroxymethylphenyl)urea], for which the half-maximal inhibitory concentration (IC50) under setting [1] was 0.095 µM.
Turning to `NCCNc1cc(NC(=O)Nc2ccccc2CCO)cc(OC(F)(F)F)c1` [Compound 67], the IC50 under setting [1] came to 0.022 µM.
For `O=C(Nc1cccc(OC(F)(F)F)c1)Nc1cc(F)ccc1CO` [Compound 32, 1-(5-fluoro-2-hydroxymethylphenyl)-3-(3-trifluoromethoxyphenyl)urea], the IC50 under setting [1] was 0.11 µM.
On to `O=C(Nc1cccc(SC(F)(F)F)c1)Nc1ccccc1CO` [Compound 41, 1-(2-hydroxymethylphenyl)-3-(3-trifluoromethylsulphanylphenyl)urea], for which the IC50 under setting [1] was 0.14 µM.
The same measure, in the same setting: next, `O=C(Nc1ccnc(Cl)c1)Nc1ccccc1CO` [Compound 4, 1-(2-chloropyridin-4-yl)-3-(2-hydroxymethylphenyl)urea]: 1.6 µM.
On the same count and under the same terms, under `O=C(Nc1ccnc(F)c1)Nc1ccccc1CCO` [Compound 9, 1-(2-fluoropyridin-4-yl)-3-[2-(2-hydroxyethyl)phenyl]urea] stands 1.6 µM; under `O=C(Nc1cc(F)cc(F)c1)Nc1ccccc1CO` [Compound 17, 1-(3,5-difluorophenyl)-3-(2-hydroxymethylphenyl)urea], 0.65 µM; under `O=C(Nc1cc(Cl)nc(Cl)c1)Nc1cc(F)ccc1CCO` [Compound 14, 1-[5-fluoro-2-(2-hydroxyethyl)phenyl]-3-(2,6-dichloropyridin-4-yl)urea], 0.056 µM.
On the same count and under the same terms, under `O=C(Nc1cc(F)nc(F)c1)Nc1ccccc1CCO` [Compound 10, 1-(2,6-difluoropyridin-4-yl)-3-[2-(2-hydroxyethyl)phenyl]urea] stands 0.72 µM; under `COc1cc(NCCO)cc(NC(=O)Nc2ccccc2CCO)c1` [Compound 57, 1-[3-(2-hydroxyethylamino)-5-methoxyphenyl]-3-[2-(2-hydroxyethyl)phenyl]urea], 0.16 µM; under `O=C(Nc1ccnc(F)c1)Nc1ccccc1CO` [Compound 1, 1-(2-fluoropyridin-4-yl)-3-(2-hydroxymethylphenyl)urea], 2.5 µM.
With `O=C(Nc1cccc(OC(F)(F)F)c1)Nc1cc(F)ccc1CCO` [Compound 63, 1-[5-fluoro-2-(2-hydroxyethyl)phenyl]-3-(3-trifluoromethoxyphenyl)urea], the IC50 under setting [1] was 0.036 µM.
`COc1cc(Br)cc(NC(=O)Nc2ccccc2CCO)c1` [Compound 56, 1-(3-bromo-5-methoxyphenyl)-3-[2-(2-hydroxyethyl)phenyl]urea]: half-maximal inhibition (IC50) was put at 0.14 µM.
As to `COc1cc(F)cc(NC(=O)Nc2ccccc2CCO)c1` [Compound 54, 1-(3-fluoro-5-methoxyphenyl)-3-[2-(2-hydroxyethyl)phenyl]urea], the IC50 under setting [1] was 0.28 µM.
The same measure, in the same setting: next, `O=C(Nc1cc(Cl)cc(Cl)c1)Nc1cccc(Cl)c1CO` [Compound 20, 1-(3-Chloro-2-hydroxymethylphenyl)-3-(3,5-dichlorophenyl)urea]: 0.27 µM; `O=C(Nc1cc(Cl)cc(Cl)c1)Nc1cc(Cl)cc(Cl)c1CO` [Compound 21, 1-(3,5-Dichloro-2-hydroxymethylphenyl)-3-(3,5-dichlorophenyl)urea]: 0.02 µM; `COc1cc(Cl)cc(NC(=O)Nc2ccccc2CCO)c1` [Compound 55, 1-(3-Chloro-5-methoxyphenyl)-3-[2-(2-hydroxyethyl)phenyl]urea]: 0.18 µM.
Consider `O=C(Nc1cc(Cl)cc(Cl)c1)Nc1ccccc1CCO` [Compound 45, 1-(3,5-Dichlorophenyl)-3-[2-(2-hydroxyethyl)phenyl]urea], for which the IC50 under setting [1] worked out at 0.18 µM.
As for `O=C(Nc1cc(Cl)nc(Cl)c1)Nc1ccccc1CCO` [Compound 13, 1-(2,6-Dichloropyridin-4-yl)-3-[2-(2-hydroxyethyl)phenyl]urea], under setting [1], the IC50 turned out to be 0.43 µM.
Take `O=C(Nc1cccc(OC(F)(F)F)c1)Nc1cccc(Br)c1CO` [Compound 31, 1-(3-bromo-2-hydroxymethylphenyl)-3-(3-trifluoro-methoxyphenyl)urea]: the IC50 under setting [1] is 0.37 µM.
Still for that read-out and setting: next, `COc1cc(NC(=O)Nc2cc(F)ccc2CCO)ccn1` [Compound 15, 1-[5-fluoro-2-(2-hydroxyethyl)phenyl]-3-(2-methoxypyridin-4-yl)urea]: 0.15 µM; `COc1cccc(NC(=O)Nc2ccccc2CCO)c1` [Compound 50, 1-[2-(2-hydroxyethyl)phenyl]-3-(3-methoxyphenyl)urea]: 0.27 µM; `O=C(Nc1cc(Br)cc(Br)c1)Nc1ccccc1CCO` [Compound 46, 1-(3,5-dibromophenyl)-3-[2-(2-hydroxyethyl)phenyl]urea]: 0.14 µM.
In the case of `COc1cc(NC(=O)Nc2ccccc2CO)ccn1` [Compound 7, 1-(2-methoxypyridin-4-yl)-3-(2-hydroxymethylphenyl)urea], the IC50 under setting [1] turned out to be 1.1 µM.
Still for that read-out and setting: next, `O=C(Nc1cc(F)nc(F)c1)Nc1ccccc1CO` [Compound 3, 1-(2,6-difluoropyridin-4-yl)-3-(2-hydroxymethylphenyl)urea]: 0.82 µM; `O=C(Nc1cccc(OC(F)(F)F)c1)Nc1cc(Br)cc(Br)c1CO` [Compound 37, 1-(3,5-dibromo-2-hydroxymethylphenyl)-3-(3-trifluoromethoxyphenyl)urea]: 0.051 µM.
